Test results as given in ChEMBL document CHEMBL1148642, “(2S,3S)-3-Amino-4-(3,3-difluoropyrrolidin-1-yl)-N,N-dimethyl-4-oxo-2-(4-[1,2,4]triazolo[1,5-a]-pyridin-6-ylphenyl)butanamide: a selective alpha-amino amide dipeptidyl peptidase IV inhibitor for the treatment of type 2 diabetes” (J Med Chem, 2006).

How the values were obtained:
Dipeptidyl peptidase 4 [1] = target: T1, Dipeptidyl peptidase 4 (Homo sapiens, UniProt P27487); assay: Inhibition of DPP4 in presence of 50% human serum
Xaa-Pro aminopeptidase 1 = Xaa-Pro aminopeptidase 1 (Homo sapiens, UniProt Q9NQW7); assay: Inhibition of aminopeptidase P
Xaa-Pro aminopeptidase 1, sequence (Q9NQW7 whole entry): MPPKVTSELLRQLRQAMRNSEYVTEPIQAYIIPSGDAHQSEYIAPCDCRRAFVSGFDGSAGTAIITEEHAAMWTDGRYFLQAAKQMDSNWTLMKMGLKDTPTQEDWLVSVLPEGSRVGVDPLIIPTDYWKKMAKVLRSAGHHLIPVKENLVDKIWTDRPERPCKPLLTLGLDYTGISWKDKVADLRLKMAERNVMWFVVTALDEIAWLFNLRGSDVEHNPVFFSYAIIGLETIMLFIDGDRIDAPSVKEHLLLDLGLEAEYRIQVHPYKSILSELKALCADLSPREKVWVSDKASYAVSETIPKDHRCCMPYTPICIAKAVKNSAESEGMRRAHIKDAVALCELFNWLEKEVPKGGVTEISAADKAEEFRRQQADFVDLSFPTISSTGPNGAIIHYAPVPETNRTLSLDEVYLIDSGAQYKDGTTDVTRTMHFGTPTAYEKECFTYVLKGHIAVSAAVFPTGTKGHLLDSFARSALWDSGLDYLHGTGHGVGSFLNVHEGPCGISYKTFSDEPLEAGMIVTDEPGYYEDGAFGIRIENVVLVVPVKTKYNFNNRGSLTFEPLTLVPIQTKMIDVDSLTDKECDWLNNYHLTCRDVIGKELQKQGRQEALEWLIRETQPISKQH

Dipeptidyl peptidase 2 = Dipeptidyl peptidase 2 (Homo sapiens, UniProt Q9UHL4); assay: Inhibition of QPP
Dipeptidyl peptidase 9 = Dipeptidyl peptidase 9 (Homo sapiens, UniProt Q86TI2); assay: Inhibition of DPP9
Dipeptidyl peptidase 9, sequence (Q86TI2 whole entry): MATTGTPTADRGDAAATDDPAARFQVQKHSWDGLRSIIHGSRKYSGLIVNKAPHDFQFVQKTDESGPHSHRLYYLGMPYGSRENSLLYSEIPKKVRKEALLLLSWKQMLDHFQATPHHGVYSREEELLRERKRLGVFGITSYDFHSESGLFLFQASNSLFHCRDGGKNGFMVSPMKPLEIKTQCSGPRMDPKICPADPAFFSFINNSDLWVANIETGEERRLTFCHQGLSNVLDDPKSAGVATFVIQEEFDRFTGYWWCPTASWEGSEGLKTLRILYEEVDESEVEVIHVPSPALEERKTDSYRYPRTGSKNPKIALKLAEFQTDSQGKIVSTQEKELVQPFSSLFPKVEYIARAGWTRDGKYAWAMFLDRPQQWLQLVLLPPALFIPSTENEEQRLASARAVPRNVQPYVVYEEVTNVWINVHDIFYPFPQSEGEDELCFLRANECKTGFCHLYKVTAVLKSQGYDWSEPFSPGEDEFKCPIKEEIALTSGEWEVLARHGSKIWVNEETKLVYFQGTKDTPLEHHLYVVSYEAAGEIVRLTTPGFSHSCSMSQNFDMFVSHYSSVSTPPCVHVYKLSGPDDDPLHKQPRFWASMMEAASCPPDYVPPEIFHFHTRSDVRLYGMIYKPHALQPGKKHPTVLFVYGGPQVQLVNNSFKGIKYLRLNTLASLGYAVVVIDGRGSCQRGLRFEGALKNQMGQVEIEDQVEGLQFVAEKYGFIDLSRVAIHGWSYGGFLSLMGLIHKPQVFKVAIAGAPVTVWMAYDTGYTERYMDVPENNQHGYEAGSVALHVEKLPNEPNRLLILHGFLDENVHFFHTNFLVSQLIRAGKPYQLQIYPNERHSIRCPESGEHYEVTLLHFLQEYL

Dipeptidyl peptidase 8 = Dipeptidyl peptidase 8 (Homo sapiens, UniProt Q6V1X1); assay: Inhibition of DPP8
Dipeptidyl peptidase 8, sequence (Q6V1X1 whole entry): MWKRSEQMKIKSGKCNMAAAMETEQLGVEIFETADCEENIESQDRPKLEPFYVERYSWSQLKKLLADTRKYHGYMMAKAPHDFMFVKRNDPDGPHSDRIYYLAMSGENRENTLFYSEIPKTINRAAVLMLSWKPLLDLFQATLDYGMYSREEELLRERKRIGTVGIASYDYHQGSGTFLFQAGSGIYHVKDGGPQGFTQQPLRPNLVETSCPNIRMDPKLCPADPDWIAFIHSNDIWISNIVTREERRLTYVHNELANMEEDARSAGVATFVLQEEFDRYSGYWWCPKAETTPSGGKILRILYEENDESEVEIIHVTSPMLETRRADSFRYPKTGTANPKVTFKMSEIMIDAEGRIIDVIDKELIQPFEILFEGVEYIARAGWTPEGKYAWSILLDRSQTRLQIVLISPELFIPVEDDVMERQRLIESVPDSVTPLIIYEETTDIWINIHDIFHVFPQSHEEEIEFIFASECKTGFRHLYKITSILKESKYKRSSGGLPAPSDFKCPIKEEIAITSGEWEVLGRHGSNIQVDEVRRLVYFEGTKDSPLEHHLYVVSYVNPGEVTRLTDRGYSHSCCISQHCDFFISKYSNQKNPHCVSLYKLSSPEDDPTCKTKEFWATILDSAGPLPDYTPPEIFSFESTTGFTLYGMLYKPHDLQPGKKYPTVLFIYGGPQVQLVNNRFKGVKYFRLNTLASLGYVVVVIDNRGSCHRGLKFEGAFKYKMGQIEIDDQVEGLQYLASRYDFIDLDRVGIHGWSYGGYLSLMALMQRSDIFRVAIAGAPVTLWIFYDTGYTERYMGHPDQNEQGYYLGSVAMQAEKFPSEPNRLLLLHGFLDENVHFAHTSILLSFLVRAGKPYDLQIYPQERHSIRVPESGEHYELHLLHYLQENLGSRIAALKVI

Dipeptidyl peptidase 4 [2] = target: T1, Dipeptidyl peptidase 4; assay: Inhibition of DPP4
Prolyl endopeptidase FAP = target: T2, Prolyl endopeptidase FAP (Homo sapiens, UniProt Q12884); assay: Inhibition of FAP
T2 sequence (Q12884 whole entry): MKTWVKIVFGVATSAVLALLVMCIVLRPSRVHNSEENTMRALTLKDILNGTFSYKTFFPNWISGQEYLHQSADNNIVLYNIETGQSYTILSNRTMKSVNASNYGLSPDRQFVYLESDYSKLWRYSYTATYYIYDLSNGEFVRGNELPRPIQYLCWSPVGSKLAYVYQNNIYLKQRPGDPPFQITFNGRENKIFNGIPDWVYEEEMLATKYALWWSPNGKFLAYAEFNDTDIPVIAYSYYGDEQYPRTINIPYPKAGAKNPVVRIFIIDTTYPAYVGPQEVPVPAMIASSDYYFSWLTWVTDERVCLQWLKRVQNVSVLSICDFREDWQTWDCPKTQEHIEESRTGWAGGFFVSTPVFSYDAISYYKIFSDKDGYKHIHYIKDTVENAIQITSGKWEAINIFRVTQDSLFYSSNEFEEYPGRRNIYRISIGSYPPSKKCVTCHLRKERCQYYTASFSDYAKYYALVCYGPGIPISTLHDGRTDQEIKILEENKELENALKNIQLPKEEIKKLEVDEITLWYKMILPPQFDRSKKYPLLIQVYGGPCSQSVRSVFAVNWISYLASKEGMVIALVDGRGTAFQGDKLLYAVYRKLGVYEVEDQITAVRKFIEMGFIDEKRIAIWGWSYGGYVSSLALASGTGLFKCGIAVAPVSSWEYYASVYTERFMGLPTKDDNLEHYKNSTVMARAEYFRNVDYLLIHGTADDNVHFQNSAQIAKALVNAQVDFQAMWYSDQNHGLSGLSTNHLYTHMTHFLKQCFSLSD

Xaa-Pro dipeptidase = target: T3, Xaa-Pro dipeptidase (Homo sapiens, UniProt P12955); assay: Inhibition of prolidase
T3 sequence (P12955 whole entry): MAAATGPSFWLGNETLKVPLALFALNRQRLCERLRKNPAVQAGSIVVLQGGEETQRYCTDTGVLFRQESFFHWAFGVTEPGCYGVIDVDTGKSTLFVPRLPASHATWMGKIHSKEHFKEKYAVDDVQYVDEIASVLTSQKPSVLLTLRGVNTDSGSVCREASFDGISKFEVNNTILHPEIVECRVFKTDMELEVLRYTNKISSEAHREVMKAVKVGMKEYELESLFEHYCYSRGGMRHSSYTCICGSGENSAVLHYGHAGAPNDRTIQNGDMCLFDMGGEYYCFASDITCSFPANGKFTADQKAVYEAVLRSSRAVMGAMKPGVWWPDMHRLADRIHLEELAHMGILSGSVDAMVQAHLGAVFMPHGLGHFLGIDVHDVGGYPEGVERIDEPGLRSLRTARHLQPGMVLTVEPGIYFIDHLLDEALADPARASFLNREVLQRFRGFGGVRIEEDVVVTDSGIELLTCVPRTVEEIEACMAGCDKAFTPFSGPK

[3] = Half life in dog at 1 mg/kg, iv or 2 mg/kg, po; format: ADME, organism-based, Canis lupus familiaris; settings: in vivo
Rattus norvegicus = assay: AUC in rat at 2 mg/kg, po normalized to 1 mg/kg; format: ADME, organism-based, Plasma; settings: in vivo
Canis familiaris = assay: AUC in dog at 2 mg/kg, po normalized to 1 mg/kg; format: ADME, organism-based, Canis lupus familiaris, Plasma; settings: in vivo
[4] = Cmax in dog at 2 mg/kg, po; format: ADME, organism-based, Canis lupus familiaris; design: dose 2 mg/kg, route oral; settings: in vivo
[5] = Plasma clearance in rat at 1 mg/kg, iv or 2 mg/kg, po; format: ADME, organism-based
[6] = Half life in rat at 1 mg/kg, iv or 2 mg/kg, po; format: ADME, organism-based; settings: in vivo
[7] = Plasma clearance in dog at 1 mg/kg, iv or 2 mg/kg, po; format: ADME, organism-based, Canis lupus familiaris
[8] = Cmax in rat at 2 mg/kg, po; format: ADME, organism-based; design: dose 2 mg/kg, route oral; settings: in vivo
[9] = Bioavailability in rat at 1 mg/kg, iv and 2 mg/kg, po; format: ADME, organism-based; settings: in vivo

T1 sequence (P27487 whole entry): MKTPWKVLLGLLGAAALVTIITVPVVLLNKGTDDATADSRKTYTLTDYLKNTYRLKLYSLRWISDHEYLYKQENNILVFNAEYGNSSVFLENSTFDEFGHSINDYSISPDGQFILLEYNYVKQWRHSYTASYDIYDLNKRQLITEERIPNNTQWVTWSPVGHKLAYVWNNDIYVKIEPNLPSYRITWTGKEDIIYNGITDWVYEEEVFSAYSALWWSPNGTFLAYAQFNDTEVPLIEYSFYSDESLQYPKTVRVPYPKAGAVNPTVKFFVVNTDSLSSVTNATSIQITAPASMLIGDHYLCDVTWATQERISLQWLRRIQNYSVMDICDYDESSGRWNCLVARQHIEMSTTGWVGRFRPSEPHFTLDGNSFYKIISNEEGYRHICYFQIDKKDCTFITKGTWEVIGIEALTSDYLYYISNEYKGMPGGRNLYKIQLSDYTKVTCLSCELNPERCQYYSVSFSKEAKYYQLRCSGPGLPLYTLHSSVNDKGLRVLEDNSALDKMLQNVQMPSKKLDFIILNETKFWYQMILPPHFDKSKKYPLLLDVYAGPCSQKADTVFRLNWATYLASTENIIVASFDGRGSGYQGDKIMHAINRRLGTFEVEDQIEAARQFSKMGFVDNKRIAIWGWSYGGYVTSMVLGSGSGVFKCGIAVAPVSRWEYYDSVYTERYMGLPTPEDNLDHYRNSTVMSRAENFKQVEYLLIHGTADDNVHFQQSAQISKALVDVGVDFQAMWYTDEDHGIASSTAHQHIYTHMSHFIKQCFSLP

Compound | IC50 (Dipeptidyl peptidase 4 [1]) | IC50 (Xaa-Pro aminopeptidase 1) | IC50 (Dipeptidyl peptidase 2) | IC50 (Dipeptidyl peptidase 9) | IC50 (Dipeptidyl peptidase 8) | IC50 (Dipeptidyl peptidase 4 [2]) | IC50 (Prolyl endopeptidase FAP) | IC50 (Xaa-Pro dipeptidase) | half-life [3] | AUC (Rattus norvegicus) | AUC (Canis familiaris) | Cmax [4] | clearance [5] | half-life [6] | clearance [7] | Cmax [8] | bioavailability [9]
Cc1c(-c2ccc([C@H](C(=O)N(C)C)[C@H](N)C(=O)N3CC[C@H](F)C3)cc2)ccc2ncnn12 | 0.061 µM | > 40 µM | > 100 µM | > 100 µM | > 100 µM | 0.0086 µM | > 40 µM | > 40 µM | – | – | – | – | – | – | – | – | –
CN(C)C(=O)[C@@H](c1ccc(-c2ccc3ncnn3c2)cc1)[C@H](N)C(=O)N1CC[C@H](F)C1.O=C(O)C(F)(F)F | – | > 40 µM | > 100 µM | > 100 µM | > 100 µM | – | > 40 µM | > 40 µM | 2.4 h | 2.4 µM·h | 12 µM·h | 6600 nM | 7 mL/min/kg | 2 h | 3.1 mL/min/kg | 2300 nM | –
Cc1cc(-c2ccc([C@H](C(=O)N(C)C)[C@H](N)C(=O)N3CC[C@H](F)C3)cc2)cn2ncnc12 | 0.64 µM | > 40 µM | > 100 µM | > 100 µM | > 100 µM | 0.15 µM | > 40 µM | > 40 µM | – | – | – | – | – | – | – | – | –
CN(C)C(=O)[C@@H](c1ccc(-c2ccn3nccc3n2)cc1)[C@H](N)C(=O)N1CC[C@H](F)C1.O=C(O)C(F)(F)F | 0.053 µM | > 40 µM | 63 µM | > 100 µM | > 100 µM | 0.008 µM | > 40 µM | > 40 µM | – | 5.6 µM·h | – | – | 3.3 mL/min/kg | 4.3 h | – | 3900 nM | 46%
CN(C)C(=O)[C@@H](c1ccc(-c2ccn3ncnc3c2)cc1)[C@H](N)C(=O)N1CC[C@H](F)C1.O=C(O)C(F)(F)F | 0.035 µM | > 40 µM | 14 µM | > 100 µM | > 100 µM | 0.0053 µM | > 40 µM | > 40 µM | – | 0.83 µM·h | – | – | 10 mL/min/kg | 1.7 h | – | 600 nM | 21%
CN(C)C(=O)[C@@H](c1ccc(-c2ccc3nccn3c2)cc1)[C@H](N)C(=O)N1CC[C@H](F)C1 | 0.133 µM | > 40 µM | > 100 µM | > 100 µM | > 100 µM | 0.013 µM | > 40 µM | > 40 µM | – | – | – | – | – | – | – | – | –
CN(C)C(=O)[C@@H](c1ccc(-c2ccc3nncn3c2)cc1)[C@H](N)C(=O)N1CC[C@H](F)C1.O=C(O)C(F)(F)F | 0.016 µM | > 40 µM | > 100 µM | > 100 µM | > 100 µM | 0.0041 µM | > 40 µM | > 40 µM | – | 0.009 µM·h | – | – | 34 mL/min/kg | 1.1 h | – | 8 nM | 0.76%
CN(C)C(=O)[C@@H](c1ccc(-c2ccc3nccn3n2)cc1)[C@H](N)C(=O)N1CC[C@H](F)C1 | 0.177 µM | > 40 µM | > 100 µM | > 100 µM | > 100 µM | 0.013 µM | > 40 µM | > 40 µM | – | – | – | – | – | – | – | – | –
CN(C)C(=O)[C@@H](c1ccc(-c2ccc(=O)n(C)c2)cc1)[C@H](N)C(=O)N1CC[C@H](F)C1.O=C(O)C(F)(F)F | 0.079 µM | > 40 µM | > 100 µM | > 100 µM | > 100 µM | 0.008 µM | > 40 µM | > 40 µM | – | 0.048 µM·h | – | – | 15 mL/min/kg | 1.2 h | – | 21 nM | 2%
Cc1nc2ccc(-c3ccc([C@H](C(=O)N(C)C)[C@H](N)C(=O)N4CC[C@H](F)C4)cc3)cn2n1 | 0.223 µM | > 40 µM | > 100 µM | > 100 µM | > 100 µM | 0.022 µM | > 40 µM | > 40 µM | – | – | – | – | – | – | – | – | –
